We go through 51 compounds from PubChem BioAssay AID179 (DTP/NCI, 2004).

SMILES strings stand for the structures. Active and inactive are the calls of the source.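 How the source made its calls: active means compounds giving half or more protection of infected cells from virus-caused growth loss, again on retest; inactive means the rest.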 Where a SMILES comes first, the peptide text is derived from it.

This experiment relates to CEM cells HIV-1 protection, formazan growth assay. Kind of experiment: NCI AIDS Antiviral Assay. The note with it: for IC50: measured here: growth of uninfected CEM cells. An outline of the steps: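 Soluble formazan readout of cell growth; CEM cells ± HIV-1; 5 drug concs. ≥50% protection → retest; ≥50% again = moderately active; reproducible 100% = confirmed active.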

As for `CC(C)OC(=O)OCSc1ccccc1N=Cc1cccc([N+](=O)[O-])c1`, the EC50 (usually the concentration giving half of the maximal effect) is over 200 µM and the concentration for half-maximal inhibition (IC50) (in general, the point on the concentration scale where inhibition reaches its midpoint) was 38 µM.
With `Cc1cc2c(C(C)C)c(O)c(O)c(C=Nc3ccccc3)c2c(O)c1-c1c(C)cc2c(C(C)C)c(O)c(O)c(C=Nc3ccccc3)c2c1O`, the EC50 is 0.55 µM and the IC50 amounted to 0.562 µM.
Turning to `S=C(Nc1ccc(Cl)c(Cl)c1)N1c2ccccc2-n2cccc2C1c1cccnc1` (centres undefined), the EC50 is over 49 µM and the IC50 stood at 25.1 µM.
`COc1cc(NCc2ccc3nc(OC)c(OC)nc3c2)cc(OC)c1OC`: the EC50 was over 200 µM and the 50% inhibitory concentration (IC50) is over 200 µM.
Regarding `c1ccc2c(c1)NC(C1OC3CCCN3C1C1Nc3ccccc3S1)S2` (centres undefined), the EC50 is over 200 µM and the concentration for half-maximal inhibition (IC50) was 107 µM.
For `COc1ccc2c(c1)CCC1=C/C(=N\NC(N)=O)CCC12C` (centres undefined), the EC50 was over 63.1 µM and the half-maximal inhibitory concentration (IC50) was over 63.1 µM.
`CN(C)S(=O)(=O)N1C(=O)c2ccccc2C1=O`: the EC50 is over 102 µM and the IC50 was over 102 µM.
Regarding `CCN1C[C@]2(C)CC[C@H](OCc3ccccc3)C34C5C[C@@H]6CC[C@](O)(C(C[C@@H]32)C14)C5[C@H]6OCc1ccccc1` (some centres undefined), the EC50 is over 200 µM and the 50% inhibitory concentration (IC50) was over 100 µM.
`Cc1coc(C)c1C(=S)Nc1ccc(Cl)c(C(=O)OC(C)C)c1`: the EC50 was 0.282 µM and the IC50 worked out at 38 µM.
Taken in the same sequence, the figures for `O=c1cn[nH]c2ccc(F)cc12` were over 219 µM and over 219 µM.
Taken in the same sequence, the figures for `CSC(SC)=C(C#N)C(=O)Nc1cccc(Cl)c1` were over 200 µM and 30.2 µM.
Taken in the same sequence, the figures for `COC(=O)c1c(C)cccc1C1CN=NC12Cc1ccc(C)cc1C2=O` (centres undefined) were over 72.4 µM and 41.7 µM.
Turning to `Cc1cccc(N=Nc2c(C)nn(C(=O)CC(=O)Nc3ccccc3)c2C)c1`, the EC50 was over 200 µM and the IC50 is over 200 µM.
On to `Cn1c(=O)c2c(nc3n2CCC(=O)N3)n(C)c1=O`, for which the EC50 is over 251 µM and the 50% inhibitory concentration (IC50) was over 251 µM.
As to `CNC(=O)O/N=C(\C(=N\OC(=O)NC)c1ccccc1)c1ccccc1`, the result was inactive.
`COc1cc(C2c3cc4c(c(O)c3C(=O)C3CCC(=O)N32)OCO4)cc(OC)c1OC` (centres undefined): the EC50 was over 200 µM and the concentration for half-maximal inhibition (IC50) worked out at 20.9 µM.
In the case of `Cc1c2ccccc2nc(CS(C)(=O)=O)[n+]1[O-]`, the EC50 was over 200 µM and the 50% inhibitory concentration (IC50) was over 200 µM.
Regarding `O=C(O)CCC(CCC(=O)O)(C(=O)O)c1ccccc1`, the EC50 is over 5620 µM and the 50% inhibitory concentration (IC50) came out at 4470 µM.
On to `CCC(C)C(NC(=O)C(CCC(N)=O)NC(=O)CN)C(=O)NC(Cc1ccccc1)C(=O)NC(CO)C(=O)NC(CCCN=C(N)N)C(N)=O` (centres undefined) (H-GQIFSR-NH2; configuration not given here), for which the outcome was inactive.
In the case of `CCN(CC)CCOc1cccc(/C=C(\C#N)c2ccccc2)c1`, the EC50 is over 100 µM and the 50% inhibitory concentration (IC50) turned out to be 7.76 µM.
Regarding `COc1cc(/C=C\c2ccc(SC)cc2)cc(OC)c1OC`, the EC50 is over 42.7 µM and the 50% inhibitory concentration (IC50) stood at 0.0724 µM.
Taken in the same sequence, the figures for `COC(=O)Cc1c([C@H]2[C@H](CC(=O)OC)c3ccccc3N2C(=O)C(F)(F)F)[nH]c2ccccc12` were over 200 µM and 27.5 µM.
On the same counts, the results for `COC=C=CC(C)(C)OC` are over 550 µM and over 550 µM.
Taken in the same sequence, the figures for `COc1cccc(/C=N/[N-]C(N)=O)c1[O-].[Cu+2].c1ccncc1` were over 5.75 µM and over 5.75 µM.
Consider `O=C(O)C12C3CCC(C3)C1(C(=O)O)C1CCC2C1` (centres undefined), for which the EC50 is over 1000 µM and the IC50 was over 1000 µM.
In the case of `C[C@@H](NC(=O)c1ccccc1SC(=O)OCCBr)C(N)=O`, the EC50 is 4.57 µM and the 50% inhibitory concentration (IC50) was over 200 µM.
Taken in the same sequence, the figures for `COC(=O)c1ccccc1C1CN=NC12Cc1ccc3ccccc3c1C2=O` (centres undefined) were over 200 µM and over 200 µM.
Consider `COc1cccc2cc(C)c(C(=O)c3ccccc3)nc12`, for which the EC50 was over 64.6 µM and the half-inhibitory concentration (IC50) is over 64.6 µM.
With `O=C(NCCOC(=O)CCCCCCCCC(=O)OCCNC(=O)NC(=O)c1cn(Cc2ccccc2)c(=O)[nH]c1=O)NC(=O)c1cn(Cc2ccccc2)c(=O)[nH]c1=O`, the EC50 is over 43.7 µM and the half-inhibitory concentration (IC50) was over 43.7 µM.
For the compound `N#Cc1sc2nc3ccccc3n2c1N`, the EC50 is over 200 µM and the 50% inhibitory concentration (IC50) came to 28.8 µM.
On the same counts, the results for `O=C(NCCCCCCNC(=O)c1cc(-c2ccccc2)nc2ccccc12)c1cc(-c2ccccc2)nc2ccccc12` are over 200 µM and over 200 µM.
On the same counts, the results for `Cc1ccc([N+](=O)[O-])c2c(NCC(O)CO)ccnc12` (centres undefined) are over 33.9 µM and 26.3 µM.
Taken in the same sequence, the figures for `COC(=O)C1[C@@H](C(=O)OC)C12C=Cc1ccccc1C=C2` (some centres undefined) were over 200 µM and over 200 µM.
As for `Cc1[nH]cc2c1C(c1ccccc1)=NCC(=O)N2`, the EC50 is over 200 µM and the IC50 was over 200 µM.
`O=C1OC(CC(=O)c2ccc(Cl)cc2)C(Cl)=C1Cl` (centres undefined): the EC50 was over 85.1 µM and the half-inhibitory concentration (IC50) was over 85.1 µM.
`O=C(/C=C/c1ccc2c(c1)OCO2)N1CCCCC1`: the result was inactive.
`NS(=O)(=O)c1cc2c(cc1C(F)(F)F)NCNS2(=O)=O`: the EC50 is over 759 µM and the IC50 was over 759 µM.
Take `CC(C)C(C(=O)O)n1[se]c2ccccc2c1=O` (centres undefined): the EC50 is 15.5 µM and the concentration for half-maximal inhibition (IC50) was 120 µM.
Taken in the same sequence, the figures for `CC(C)=CC1(C)/C(=N\O)C(C)(CC(C)C)C(=O)N1O` (centres undefined) were over 933 µM and over 933 µM.
On the same counts, the results for `COc1ccc(-c2oc(/C=N/NC(N)=S)c([N+](=O)[O-])c2-c2ccc(OC)c(OC)c2)cc1OC` are over 20.4 µM and over 20.4 µM.
For `CN(C)C(=S)SSC(=S)N(C)C.[Zn+2]`, the EC50 is over 200 µM and the IC50 amounted to 0.117 µM.
Taken in the same sequence, the figures for `CC(C)=C1C2CCC1C(CO)C2CO` (centres undefined) were over 457 µM and over 457 µM.
Turning to `CC(C)C1C(=O)N(c2c(F)c(F)c(F)c(F)c2F)C(=S)N1CCS(=O)c1ccccc1` (centres undefined), the EC50 is over 200 µM and the concentration for half-maximal inhibition (IC50) came to 9.33 µM.
On the same counts, the results for `O=C(N=C1[Se]C(=Nc2ccccc2)C(=Nc2ccccc2)N1c1ccccc1)c1ccccc1` are over 200 µM and 107 µM.
Taken in the same sequence, the figures for `CC(C)(C)NC(=O)CCC(CC(=O)NC(C)(C)C)S(=O)(=O)O` (centres undefined) were over 200 µM and over 200 µM.
Taken in the same sequence, the figures for `COc1cccc(C(=O)C#Cc2cnc(OC)nc2OC)c1` were over 0.2 µM and 0.0437 µM.
For `COc1c(C(=O)/C(=N/Nc2cccc(Cl)c2)C(C)=O)c(O)c(OC)c2occc12`, the EC50 is over 200 µM and the IC50 stood at 85.1 µM.
Take `CCOC(=O)C1SC(=Nc2cccc(Cl)c2C)N=C1C` (centres undefined): the EC50 was 6.03 µM and the half-maximal inhibitory concentration (IC50) worked out at 60.3 µM.
For the compound `NC1=CN2c3ccccc3N(CC(=O)N3CCOCC3)C2C=C1` (centres undefined), the EC50 is over 200 µM and the IC50 is over 200 µM.
For the compound `c1cc2cc(c1)CN1CCNCCN(CCNCC1)Cc1cccc(c1)CN1CCNCCN(CCNCC1)C2`, the EC50 was over 50.1 µM and the IC50 is over 50.1 µM.
Consider `Cc1cc(-c2cc(C(C)(C)C)c(O)c(C(C)(C)C)c2)c(C)cc1-c1cc(C(C)(C)C)c(O)c(C(C)(C)C)c1`, for which the EC50 is over 100 µM and the IC50 is over 100 µM.
